Drawing on US7205301B2, “Microbiocidal N-phenyl-n-[4-(4-pyridyl)-2-pyrimidin-2-yl]-amine derivatives” (Syngenta Crop Protection, Inc., priority 2001, dated 2007), this text covers pest or weed control for 19 compounds.

SMILES strings stand for the structures. Bounds are passed on as bounds.

Format in all cases: in vivo
Assay [1] relates to Botrytis cinerea. Kind of assay: Example B-7: Botrytis cinerea / grape (Botrytis on grapes). Conditions: 72 h, 0.02% active substance, spray, grape seedlings cv. Gutedel, inoculated two days after application, assessed after 3 days incubation, read-out: control of the fungal infection. The method, then: Botrytis cinerea/Grape (Botrytis on Grapes) 5 week old grape seedlings cv. Gutedel are treated with the formulated test compound (0.02% active substance) in a spray chamber. Two days after application grape plants are inoculated by spraying a spore suspension (1.5×10^5 conidia/ml) on the test plants. After an incubation period of 3 days at +21° C. and 95% r. h. in a greenhouse the disease incidence is assessed.

Assay [2] relates to Botrytis cinerea. As to the kind of experiment: Example B-8: effect against Botrytis cinerea / tomato (Botrytis on tomatoes). Conditions: 96 h, 0.02% active substance, spray, tomato cv. Roter Gnom, inoculated two days after application, assessed after 4 days incubation, read-out: control of the fungal infection. The method, then:
Effect Against Botrytis cinerea/Tomato (Botrytis on Tomatoes) 4 week old tomato plants cv. Roter Gnom are treated with the formulated test compound 0.02% active substance) in a spray chamber. Two days after application tomato plants are inoculated by spraying a spore suspension (1×10^5 conidia/ml) on the test plants. After an incubation period of 4 days at +20° C. and 95% r. h. in a greenhouse the disease incidence is assessed.

Assay [3] deals with Pyrenophora teres (Helminthosorium). Kind of assay: Example B-10: effect against Pyrenophora teres (Helminthosorium) / barley (net blotch on barley). Conditions: 48 h, 0.02% active substance, spray, barley cv. Regina, inoculated two days after application, assessed after 2 days incubation, read-out: control of the fungal infection. As for the experimental part:
Effect Against Pyrenophora teres (Helminthosorium)/Barley (Net Blotch on Barley) 1 week old barley plants cv. Regina are treated with a formulated test compound (0.02% active substance) in a spray chamber. Two days. after application barley plants are inoculated by spraying a spore suspension (3×10^4 conidia/ml) on the test plants. After an incubation period of 2 days at +20° C. and 95% r.h. the disease incidence is assessed.

Assay [4] deals with Septoria nodorum. Kind of assay: Example B-12: effect against Septoria nodorum / wheat (Septoria leaf spot on wheat). The following applies: Parastagonospora nodorum, 192 h; 0.02% active substance, spray; wheat cv. Arina; inoculated one day after application; assessed 8 days after inoculation; read-out: control of the fungal infection. The method, then: Effect Against Septoria nodorum/Wheat (Septoria Leaf Spot on Wheat) 1 week old wheat plants cv. Arina are treated with a formulated test compound (0.02% active substance) in a spray chamber. One day after application wheat plants are inoculated by spraying a spore suspension (6×10^5 conidia/ml) on the test plants. After an incubation period of 1 day at +22° C. and 95% r.h. plants are kept for 7 days at +22° C. and 60% r.h. in a greenhouse. The disease incidence is assessed 8 days after inoculation.

In the case of `CC1=NN(c2cc(-c3ccnc(Nc4cccc(Cl)c4)n3)ccn2)C(=O)C1(C)C` [1.01/028, 2-{4-[2-(3-Chloro-phenylamino)-pyrimidin-4-yl]-pyridin-2-yl}-4,4,5-trimethyl-2,4-dihydro-pyrazol-3-one], the pest or weed control at 0.02 % strength in assay [1], in assay [2], in assay [3] and in assay [4] was more than 70% each time.
Turning to `CCC1(C)C(=O)N(c2cc(-c3ccnc(Nc4cccc(Cl)c4)n3)ccn2)N=C1C` (stereo not shown) [1.03/028, 2-{4-[2-(3-Chloro-phenylamino)-pyrimidin-4-yl]-pyridin-2-yl}-4-ethyl-4,5-dimethyl-2,4-dihydro-pyrazol-3-one], the pest or weed control at 0.02 % strength in assay [1], in assay [3] and in assay [4] was more than 70% in each case.
For `CC1=NN(c2cc(-c3ccnc(Nc4cccc(Cl)c4)n3)ccn2)C(=O)C12CC2` [1.04/028, 5-{4-[2-(3-Chloro-phenylamino)-pyrimidin-4-yl]-pyridin-2-yl}-7-methyl-5,6-diaza-spiro[2.4]hept-6-en-4-one], the pest or weed control at 0.02 % strength in assay [1], in assay [2] and in assay [3] was more than 70% each time.
Consider `CC1=NN(c2cc(-c3ccnc(Nc4cccc(Cl)c4)n3)ccn2)C(=S)C1(C)C` [1.06/028, 2-{4-[2-(3-Chloro-phenylamino)-pyrimidin-4-yl]-pyridin-2-yl}-4,4,5-trimethyl-2,4-dihydro-pyrazole-3-thione], for which the pest or weed control at 0.02 % strength in assay [1], in assay [2], in assay [3] and in assay [4] was more than 70% throughout.
For `CC1(C)C=NN(c2cc(-c3ccnc(Nc4cccc(Cl)c4)n3)ccn2)C1=O` [1.07/028, 2-{4-[2-(3-Chloro-phenylamino)-pyrimidin-4-yl]-pyridin-2-yl}-4,4-dimethyl-2,4-dihydro-pyrazol-3-one], the pest or weed control at 0.02 % strength in assay [1], in assay [3] and in assay [4] was more than 70% in each case.
Take `COCC1=NN(c2cc(-c3ccnc(Nc4cccc(Cl)c4)n3)ccn2)C(=O)C1(C)C` [1.08/028, 2-{4-[2-(3-Chloro-phenylamino)-pyrimidin-4-yl]-pyridin-2-yl}-5-methoxymethyl-4,4-dimethyl-2,4-dihydro-pyrazol-3-one]: the pest or weed control at 0.02 % strength in assay [3] is more than 70%.
Turning to `Cc1c(C)n(C)n(-c2cc(-c3ccnc(Nc4cccc(Cl)c4)n3)ccn2)c1=O` [2.02/028, 2-{4-[2-(3-Chloro-phenylamino)-pyrimidin-4-yl]-pyridin-2-yl}-1,4,5-trimethyl-1,2-dihydro-pyrazol-3-one], the pest or weed control at 0.02 % strength in assay [2], in assay [3] and in assay [4] was more than 70% throughout.
Turning to `Cc1cc(=O)n(-c2cc(-c3ccnc(Nc4cccc(Cl)c4)n3)ccn2)n1C` [2.03/028, 2-{4-[2-(3-Chloro-phenylamino)-pyrimidin-4-yl]-pyridin-2-yl}-1,5-dimethyl-1,2-dihydro-pyrazol-3-one], the pest or weed control at 0.02 % strength in assay [1], in assay [3] and in assay [4] was more than 70% throughout.
As to `Cc1c(C=O)c(=O)n(-c2cc(-c3ccnc(Nc4cccc(Cl)c4)n3)ccn2)n1C` [2.04/028, 2-{4-[2-(3-Chloro-phenylamino)-pyrimidin-4-yl]-pyridin-2-yl}-1,5-dimethyl-3-oxo-2,3-dihydro-1H-pyrazole-4-carbaldehyde], the pest or weed control at 0.02 % strength in assay [4] is more than 70%.
`Cc1cn(C)n(-c2cc(-c3ccnc(Nc4cccc(Cl)c4)c3)ccn2)c1=O` [2.05/028, 2-{4-[2-(3-Chloro-phenylamino)-pyridin-4-yl]-pyridin-2-yl}-1,4-dimethyl-1,2-dihydro-pyrazol-3-one]: the pest or weed control at 0.02 % strength in assay [1], in assay [2], in assay [3] and in assay [4] was more than 70% throughout.
Turning to `CCn1c(C)c(C)c(=O)n1-c1cc(-c2ccnc(Nc3cccc(Cl)c3)c2)ccn1` [2.06/028, 2-{4-[2-(3-Chloro-phenylamino)-pyridin-4-yl]-pyridin-2-yl}-1-ethyl-4,5-dimethyl-1,2-dihydro-pyrazol-3-one], the pest or weed control at 0.02 % strength in assay [2] and in assay [4] was more than 70% each time.
For `COCN(c1cccc(Cl)c1)c1nccc(-c2ccnc(-n3c(=O)cc(C)n3C)c2)n1` [2.08/048, 2-(4-{2-[(3-Chloro-phenyl)-methoxymethyl-amino]-pyrimidin-4-yl}-pyridin-2-yl)-1,5-dimethyl-1,2-dihydro-pyrazol-3-one], the pest or weed control at 0.02 % strength in assay [1], in assay [2] and in assay [3] was more than 70% each time.
For `COCc1c(C)c(=O)n(-c2cc(-c3ccnc(Nc4cccc(Cl)c4)n3)ccn2)n1C` [2.09/028, 2-{4-[2-(3-Chloro-phenylamino)-pyrimidin-4-yl]-pyridin-2-yl}-5-methoxymethyl-1,4-dimethyl-1,2-dihydro-pyrazol-3-one], the pest or weed control at 0.02 % strength in assay [1], in assay [3] and in assay [4] was more than 70% in each case.
Turning to `COCc1cc(=O)n(-c2cc(-c3ccnc(Nc4cccc(Cl)c4)n3)ccn2)n1C` [2.011/028, 2-{4-[2-(3-Chloro-phenylamino)-pyrimidin-4-yl]-pyridin-2-yl}-5-methoxymethyl-1-methyl-1,2-dihydro-pyrazol-3-one], the pest or weed control at 0.02 % strength in assay [3] was more than 70%.
As to `COc1cc(C)nn1-c1cc(-c2ccnc(Nc3cccc(Cl)c3)n2)ccn1` [3.01/028, (3-Chloro-phenyl)-{4-[2-(5-methoxy-3-methyl-pyrazol-1-yl)-pyridin-4-yl]-pyrimidin-2-yl}-amine], the pest or weed control at 0.02 % strength in assay [2], in assay [3] and in assay [4] was more than 70% each time.
For the compound `COc1c(C)cnn1-c1cc(-c2ccnc(Nc3cccc(Cl)c3)n2)ccn1` [3.012/028, (3-Chloro-phenyl)-{4-[2-(5-methoxy-4-methyl-pyrazol-1-yl)-pyridin-4-yl]-pyrimidin-2-yl}-amine], the pest or weed control at 0.02 % strength in assay [1], in assay [3] and in assay [4] was more than 70% throughout.
Regarding `COCc1nn(-c2cc(-c3ccnc(Nc4cccc(Cl)c4)n3)ccn2)c(OC)c1C` [3.013/028, (3-Chloro-phenyl)-{4-[2-(5-methoxy-3-methoxymethyl-4-methyl-pyrazol-1-yl)-pyridin-4-yl]-pyrimidin-2-yl}-amine], the pest or weed control at 0.02 % strength in assay [1] and in assay [3] was more than 70% throughout.
For the compound `COCc1cc(OC)n(-c2cc(-c3ccnc(Nc4cccc(Cl)c4)n3)ccn2)n1` [3.014/028, (3-Chloro-phenyl)-{4-[2-(5-methoxy-3-methoxymethyl-pyrazol-1-yl)-pyridin-4-yl]-pyrimidin-2-yl}-amine], the pest or weed control at 0.02 % strength in assay [1] and in assay [3] was more than 70% throughout.
As for `Cc1nn(-c2cc(-c3ccnc(Nc4cccc(Cl)c4)n3)ccn2)c(C)c1C` [3.017/028, (3-Chloro-phenyl)-{4-[2-(3,4,5-trimethyl-pyrazol-1-yl)-pyridin-4-yl]-pyrimidin-2-yl}-amine], in assay [3], the pest or weed control at 0.02 % strength is more than 70%.
